According to patent US8344146B2, “Inhibitor of DD-peptidase and its use as antibiotic or anticancer drug” (Narodowy Instytut Zdrowia Publicznego-Panstwowy Zaklad …, priority 2007, dated 2013):
≈ marks a conversion by molar mass, not a printed value.

Legend:
[1] = biological target: T1, DD-peptidase R39 (Actinomadura sp., UniProt P39045); experiment: DD-peptidase R39 activity inhibition (ID50); type: biochemical; settings: DD-peptidase R39, purified inhibitor; read-out: ID50 (M), molar concentration of inhibitor which inhibits 50% of enzyme activity
T1 construct: extracellular DD-peptidase R39 produced by Actinomadura sp; R39; gift: Prof; Jean-Maria Ghuysen; host or cells: Actinomadura sp; R39 (natural producer, secreted)

[2] = biological target: T2, DD-peptidase R61 (Streptomyces sp., UniProt P15555); experiment: Life of the inhibitor-enzyme complex, R61; type: biochemical, Streptomyces sp. R61
T2 construct: DD-peptidase R61 produced by Streptomyces sp; R61; gift: Prof; Jean-Maria Ghuysen; host or cells: Streptomyces sp; R61 (natural producer)
Method: (§1) The Life of the Inhibitor-Enzyme Complex was Also Determined.
(§2) The incubation was performed from several to several dozen hours of each enzyme and inhibitor (as described above). Next, the reaction mixture was added, and determinations were performed.

[3] = biological target: T2, DD-peptidase R61; experiment: DD-peptidase R61 activity inhibition (ID50); type: biochemical; settings: DD-peptidase R61, purified inhibitor; read-out: ID50 (M), molar concentration of inhibitor which inhibits 50% of enzyme activity
[4] = Inhibitor characteristics: solubility; type: physicochemical
Description: • 1.) Solid yellow in colour. • 2.) Solubility. The inhibitor is soluble in PBS pH 7.2-8.0; soluble in an aqueous environment with low levels of K^+, Na^+. It also dissolves in methanol, DMSO, but degrades in these solvents.

[5] = system: Candida albicans ATCC 10231; experiment: Antifungal activity analysis, disc on Sabourand medium; type: cell-based; settings: discs with 1 mg, 35° C. for 24 h; inhibitor fractions following stage 2 of purification
Method: A Petri dish with solid Sabourand medium with 4% glucose was inoculated with a Candida albicans ATCC 10231 suspension, at 0.02 McF density. Tissue discs soaked in the inhibitor solution were then placed on the medium (1 mg). The incubation was performed at 35° C. for 24 h.

[6] = system: Escherichia coli NCTC 8196; experiment: MIC, serial dilutions on solid media; type: cell-based; settings: NCTC8196, MH II agar, 16 hours at 35° C., inhibitor fractions purified on ion-exchange column
Method: (§3) The antibacterial activity of the compound in question was determined using serial dilutions on solid media (MIC value determination) and using the spot-diffusion protocol. […] Standard bacterial strains used in the analysis:
(§4) A Petri dish was loaded with 0.25 ml of the sample in water and topped with MH II agar medium (Muller Hinton II) to 5 ml. The antibiotic concentration was 0.2 mg/ml medium. Additionally, a control without the antibiotic was made containing 5 ml of MH II. Using a densitometer, bacterial suspensions were made in NaCl solution containing 0.5 McF (10^8 CFU/ml), and subsequently dilutions thereof were made.
(§5) The following dilution series was made: • 10^4 CFU/ml NaCl for strains 6, 7, 8, 9 • 10^5 CFU/ml Nan for strains 1, 2, 3, 4, 5, 10, 11
(§6) After the medium set, 2 μl of bacterial suspension of each strain was inoculated onto the medium yielding 10^2 CFU/ml for strains 6, 7, 8, 9 and 10^3 CFU/ml for strains 1, 2, 3, 4, 5, 10, 11. Each suspension was loaded onto each plate. the incubation was performed for 16 hours at 35° C.

[7] = system: Enterococcus faecalis ATCC 29219; experiment: MIC, serial dilutions on solid media; type: cell-based; settings: ATCC29219, MH II agar, 16 hours at 35° C., inhibitor fractions purified on ion-exchange column
Method: as §3, §4, §5, §6

[8] = system: Acinetobacter baumanii ATCC 19606; experiment: MIC, serial dilutions on solid media; type: cell-based; settings: Acinetobacter baumannii, ATCC19606, MH II agar, 16 hours at 35° C., inhibitor fractions purified on ion-exchange column
Method: as §3, §4, §5, §6

[9] = system: Escherichia coli ATCC 25922; experiment: MIC, serial dilutions on solid media; type: cell-based; settings: ATCC25922, MH II agar, 16 hours at 35° C., inhibitor fractions purified on ion-exchange column
Method: as §3, §4, §5, §6

[10] = system: Stenotrophomonas maltophilia ATCC 13637; experiment: MIC, serial dilutions on solid media; type: cell-based; settings: ATCC13637, MH II agar, 16 hours at 35° C., inhibitor fractions purified on ion-exchange column
Method: as §3, §4, §5, §6

[11] = system: Staphylococcus aureus ATCC 6538P; experiment: MIC, serial dilutions on solid media; type: cell-based; settings: ATCC6538P, MH II agar, 16 hours at 35° C., inhibitor fractions purified on ion-exchange column
Method: as §3, §4, §5, §6

[12] = system: Klebsiella pneumoniae ATCC 13883; experiment: MIC, serial dilutions on solid media; type: cell-based; settings: ATCC13883, MH II agar, 16 hours at 35° C., inhibitor fractions purified on ion-exchange column
Method: as §3, §4, §5, §6

[13] = system: Burkholderia cepacia ATCC 25416; experiment: MIC, serial dilutions on solid media; type: cell-based; settings: ATCC25416, MH II agar, 16 hours at 35° C., inhibitor fractions purified on ion-exchange column
Method: as §3, §4, §5, §6

[14] = system: Bordetella bronchiseptica ATCC 4617; experiment: MIC, serial dilutions on solid media; type: cell-based; settings: ATCC4617, MH II agar, 16 hours at 35° C., inhibitor fractions purified on ion-exchange column
Method: as §3, §4, §5, §6

[15] = system: Staphylococcus aureus NCTC 4163; experiment: MIC, serial dilutions on solid media; type: cell-based; settings: NCTC4163, MH II agar, 16 hours at 35° C., inhibitor fractions purified on ion-exchange column
Method: as §3, §4, §5, §6

[16] = system: Proteus vulgaris NCTC 4635; experiment: MIC, serial dilutions on solid media; type: cell-based; settings: NCTC4635, MH II agar, 16 hours at 35° C., inhibitor fractions purified on ion-exchange column
Method: as §3, §4, §5, §6

[17] = system: Stenotrophomonas maltophilia ATCC 13637; experiment: Spot-diffusion method, growth inhibition zones; type: cell-based; settings: ATCC13637, 0.4 mg inhibitor per disc
Method: (§7) Inhibitor activity was also determined using the spot-diffusion method.
(§8) The analysis was performed using: Proteus vulgaris NCTC 4635, Bordetella bronchiseptica ATCC 4617, Stenotrophomonas maltophilia ATCC 13637. 24 bacterial cultures were used to make suspensions containing 0.2 McF, which was then diluted 100-fold. 0.1 ml of such a mixture was then placed on a dish with Muller-Hinton medium. Discs containing the examined inhibitor fractions were placed and incubated at 35° C. The determinations were carried out at 15 and 18 hours.
(§9) The following growth inhibition zones were obtained using 0.4 mg inhibitor per disc: […]

[18] = system: Bordetella bronchiseptica ATCC 4617; experiment: Spot-diffusion method, growth inhibition zones; type: cell-based; settings: ATCC4617, 0.4 mg inhibitor per disc
Method: as §7, §8, §9

[19] = system: Proteus vulgaris NCTC 4635; experiment: Spot-diffusion method, growth inhibition zones; type: cell-based; settings: NCTC4635, 0.4 mg inhibitor per disc
Method: as §7, §8, §9

[20] = biological target: T1, DD-peptidase R39; experiment: Life of the inhibitor-enzyme complex, R39; type: biochemical, Actinomadura sp. R39
Method: as §1, §2

[21] = system: class A β-lactamase (penicillinase, Penase); experiment: β-lactamase inhibitor activity, nitrocefin method; type: biochemical; settings: 482 nm, 30 min preincubation at 37° C.
Method: Determination of β-Lactamase Inhibitor Activity Using the Nitrocefin Method (O'Callaghan et al. 1972)^2.
reagents used in the assay: 0.1 mM nitrocefin solution containing 0.5 mg nitrocefin (Glaxo), 0.5 cm^3 DMSO (Fluka), 9.5 cm^3 0.1 M PBS pH 7.0; class A β-lactamase (penicillinase, Penase, 5×10^6 IU/ml, Bacto).
20 mm^3 of the examined inhibitor in 0.1 M PBS pH 7.0 were supplemented with 10 mm^3 β-lactamase, incubated for 30 min. at 37° C. Next, 30 mm^3 of 0.1 mM nitrocefin solution were added, and 430 mm^3 of 0.1M PBS pH 7.0. The samples were incubated for 10 min. at 37° C. and evaluated spectrophotometrically at 482 nm. The molar extinction coefficient was 15000 M^−1·cm^−1.

[22] = system: β-lactamase; experiment: Inhibitor stability in a β-lactamase environment; type: biochemical
Method: Determination of Inhibitor Stability in a β-Lactamase Environment.
A method of evaluation inhibitor stability was designed using a combination of the above two methods. An initial incubation of the inhibitor with β-lactamase was performed, and then the reagents for determining DD-peptidase activity inhibition were added. The absorbance of the experimental sample was 0.05, whereas for the control sample (DD-peptidase) it was 0.35. […] It is not hydrolysed by β-lactamase.

T1 sequence (P39045 50-538): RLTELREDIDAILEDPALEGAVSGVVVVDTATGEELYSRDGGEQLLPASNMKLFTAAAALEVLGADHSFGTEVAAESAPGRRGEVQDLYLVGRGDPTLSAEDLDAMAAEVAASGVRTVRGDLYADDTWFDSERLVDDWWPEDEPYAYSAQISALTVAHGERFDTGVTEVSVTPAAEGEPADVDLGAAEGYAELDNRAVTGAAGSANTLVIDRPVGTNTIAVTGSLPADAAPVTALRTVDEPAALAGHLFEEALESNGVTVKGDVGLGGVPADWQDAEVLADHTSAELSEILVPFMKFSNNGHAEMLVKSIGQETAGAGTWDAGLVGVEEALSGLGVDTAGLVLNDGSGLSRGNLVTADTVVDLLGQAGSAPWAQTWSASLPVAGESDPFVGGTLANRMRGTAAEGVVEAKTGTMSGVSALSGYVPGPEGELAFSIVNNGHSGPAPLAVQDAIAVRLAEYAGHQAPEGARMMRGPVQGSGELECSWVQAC
T2 sequence (P15555 32-380): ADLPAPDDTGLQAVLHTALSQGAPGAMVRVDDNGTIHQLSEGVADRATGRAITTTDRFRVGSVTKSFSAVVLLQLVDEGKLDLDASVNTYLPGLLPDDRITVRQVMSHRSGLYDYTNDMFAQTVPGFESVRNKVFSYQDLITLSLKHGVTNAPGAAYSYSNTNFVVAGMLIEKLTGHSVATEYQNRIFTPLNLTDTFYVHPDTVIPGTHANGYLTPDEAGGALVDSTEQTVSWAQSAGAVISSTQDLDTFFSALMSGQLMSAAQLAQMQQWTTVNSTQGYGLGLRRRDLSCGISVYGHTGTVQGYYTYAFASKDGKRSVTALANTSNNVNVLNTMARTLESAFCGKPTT

SMILES: O=C1C=C2CC(C(=O)O)NC=C2C=C1O (stereo not drawn) [inhibitor, 7-hydroxy-6-oxo-2,3,4,6-tetrahydroisochinolin-3-carboxylic acid]
- IC50 [1]: 0.00045 M
- life of the inhibitor-DD-peptidase R 61 complex [2]: about 33 hours
- IC50 [3]: 0.000675 M
- solubility in PBS pH 7.2-8.0 ([4]; PBS pH 7.2-8.0): soluble
- solubility in an aqueous environment with low levels of K+, Na+ ([4]; aqueous, low levels of K+, Na+): soluble
- solubility in ethyl acetate, methylene chloride, chloroform, amyl acetate, acetonitrile ([4]; ethyl acetate, methylene chloride, chloroform, amyl acetate, acetonitrile): not soluble
- solubility in methanol, DMSO ([4]; methanol, DMSO): dissolves
- stability in methanol, DMSO ([4]; methanol, DMSO): degrades
- antifungal activity against Candida albicans ATCC 10231 [5]: does not exhibit antifungal activity
- MIC [6]: > 200 µg/mL
- MIC [7]: > 200 µg/mL
- MIC [8]: > 200 µg/mL
- MIC [9]: > 200 µg/mL
- MIC [10]: 200 µg/mL (≈ 965 µM)
- MIC [11]: > 200 µg/mL
- MIC [12]: > 200 µg/mL
- MIC [13]: > 200 µg/mL
- MIC [14]: 200 µg/mL (≈ 965 µM)
- MIC [15]: > 200 µg/mL
- MIC [16]: 200 µg/mL (≈ 965 µM)
- zone of inhibition at 400 µg/disc ([17]; after 15 h): 16 mm
- zone of inhibition at 400 µg/disc ([17]; after 18 h): 15 mm
- zone of inhibition at 400 µg/disc ([18]; after 15 h): 19 mm
- zone of inhibition at 400 µg/disc ([18]; after 18 h): 19 mm
- zone of inhibition at 400 µg/disc ([19]; after 15 h): 20 mm
- zone of inhibition at 400 µg/disc ([19]; after 18 h): 19 mm
- life of the inhibitor-DD-peptidase R 39 complex [20]: 3.5 h
- inhibition of class A β-lactamase [21]: did not inhibit
- stability of DD-peptidase inhibitory activity in the presence of class A β-lactamase ([22]; 24 h incubation in β-lactamase at room temperature): completely stable
- stability in a β-lactamase environment ([22]; initial incubation with β-lactamase, then DD-peptidase 64-575 II inhibition): stable in a β-lactamase environment
